Patent US10774069B2, “Crystalline forms of a lysyl oxidase-like 2 inhibitor and methods of making” (PHARMAKEA, INC., priority 2016, dated 2020)
Entries after “also recorded” stand apart in the source; their conditions may differ. Structures can show the parent of a compound that is named as a salt. Where two headings read alike, the source gives them in different places. One block for each molecule: values may come before it.

Columns and labels:
[1] = Solid form storage stability at elevated temperature/humidity; assay type: physicochemical
Method: All retrieved solids from the crystallisation attempts were stored at 40° C. and 75% RH.

[2] = as above; assay type: physicochemical; remark: listed apart in the source
LOXL2 [3] = biological target: T1, LOXL2 (Homo sapiens (Human), UniProt Q9Y4K0); test: Human LOXL2 CCM Assay (Amplex Red amine oxidase activity); assay type: biochemical; settings: concentrated conditioned media from CHO cells expressing human LOXL2; 2 h at 37° C.
T1 sequence (Q9Y4K0 26-774): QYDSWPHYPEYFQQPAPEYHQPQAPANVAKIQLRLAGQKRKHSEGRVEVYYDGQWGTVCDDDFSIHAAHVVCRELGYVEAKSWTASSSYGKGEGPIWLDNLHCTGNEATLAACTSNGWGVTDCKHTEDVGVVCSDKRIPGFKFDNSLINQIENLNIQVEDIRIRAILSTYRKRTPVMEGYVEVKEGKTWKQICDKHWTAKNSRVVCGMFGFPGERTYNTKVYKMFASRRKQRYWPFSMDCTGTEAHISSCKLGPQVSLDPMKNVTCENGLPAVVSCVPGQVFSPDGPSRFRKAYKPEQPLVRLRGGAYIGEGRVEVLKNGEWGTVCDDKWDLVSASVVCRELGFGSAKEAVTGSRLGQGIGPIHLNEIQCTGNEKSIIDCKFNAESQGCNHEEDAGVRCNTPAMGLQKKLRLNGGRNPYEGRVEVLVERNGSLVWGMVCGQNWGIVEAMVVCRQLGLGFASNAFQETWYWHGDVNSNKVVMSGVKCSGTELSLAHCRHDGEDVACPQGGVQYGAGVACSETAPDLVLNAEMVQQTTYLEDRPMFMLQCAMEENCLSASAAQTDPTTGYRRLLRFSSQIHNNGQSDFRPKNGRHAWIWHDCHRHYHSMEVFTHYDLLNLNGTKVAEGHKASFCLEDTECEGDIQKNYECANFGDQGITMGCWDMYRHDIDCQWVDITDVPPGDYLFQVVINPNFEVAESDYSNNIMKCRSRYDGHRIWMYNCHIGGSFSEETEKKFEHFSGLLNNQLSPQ
Method: Human LOXL2/CHO and human LOX/HEK stable cell lines were cultured under normal growth conditions in 15 cm tissue culture plates until cells were ˜80% confluent. Cells were then washed with PBS before the addition of 25-30 mL serum-free media (Phenol red-free DMEM/F12 mix w/glutamax containing pen/strep, 10-100 μM CuCl2±0.1% BSA). Cells were incubated at 37° C., 5% CO2 in serum-free media for 40-48 hours before the conditioned media was removed and centrifuged at 2000 rpm for 5 min at 4° C. to pellet cells/debris. The media was concentrated 10-20× using 10-30 MWCO centriprep columns according to the manufacturer's instructions (EMD Millipore, Billerica, Mass.) before aliquoting and storing at −80° C.
LOXL2 amine oxidase activity was evaluated by measuring Amplex Red fluorescence using 10-20× concentrated conditioned media (non BSA-containing) from CHO cells stably expressing human LOXL2. […] After the 2 h incubation, 5 μL of 10 mM 1,5-Diaminopentane (DAP) diluted in Assay Buffer and 10 μL of Amplex Red Mix (8.5 μL Assay Buffer+0.5 μL of 10 mM Amplex Red+1 μL of 500 U/ml Horseradish Peroxidase) were added and the plate mixed and immediately placed on the FlexStation for fluorescence measurements. Fluorescence was read in kinetic mode every 2 min for 0.5-1 hour at excitation=544 and emission=590. The amine oxidase activity was calculated from the slope of the linear portion of the curve. […]

[4] = Stability studies (accelerated and ICH); assay type: physicochemical
Method: The compounds were assayed according to appearance, purity, related Substances, chiral purity, moisture, DSC, and XRPD

[5] = Method: After each addition of solvent, the system was shaken gently for 10 minutes at 50° C. and then allowed to stand at room temperature for 5 min before the addition of a new aliquot of solvent. After the assessment was completed, any suspensions obtained were matured and clear solutions were cooled at 5° C.
Supernatants from maturation were allowed to slowly evaporate at ambient conditions.

physchem = settings: 25 °C, water, thermodynamic from solid
[6] = Preliminary free base solubility assessment of Compound I; assay type: physicochemical; settings: organic solvent or mixture, thermodynamic from solid
Method: After each addition of solvent, the system was shaken at 50° C. for 10 min and then allowed to stand at room temperature for 5 min before the addition of a new aliquot of solvent.

LOXL2 [7] = biological target: T1, LOXL2; test: In vitro assays, potency of enantiomers; assay type: biochemical
[8] = Aqueous and organic solubility of Form 1 of Compound 2; assay type: physicochemical
[9] = Gravimetric Vapor Sorption (GVS); assay type: physicochemical; settings: 0 to 90% RH
From the text: Gravimetric Vapor Sorption (GVS) isotherms were obtained using an SMS DVS Intrinsic moisture sorption analyser, controlled by DVS Intrinsic Control software v1.0.1.2 (or v 1.0.1.3), over a range of 0 to 90% relative humidity (RH).

Forced degradation study = assay type: physicochemical
[10] = Clear point / cloud point in IPA:water (Crystal 16); assay type: physicochemical; settings: mixture of Forms 1 and 4
Method: The samples were then cooled from 70 back to −8° C. at the same rate. The clear point upon heating (at 100% transmission) and the cloud point upon re-cooling (<100% transmission) were recorded using the Crystal 16 instrument and the data is shown in Table 17. XRPD analysis was performed on all solids obtained post cooling.

SMILES: Cl.NCc1cc(Oc2cccc(C(=O)N3C[C@@H](O)[C@H](F)C3)c2)nc(C(F)(F)F)c1 [Compound 1, (R,R)-trans-(3-((4-(aminomethyl)-6-(trifluoromethyl)pyridin-2-yl)oxy)phenyl)(3-fluoro-4-hydroxypyrrolidin-1-yl)methanone, hydrochloride salt]
IC50 (LOXL2 [3]): < 300 nM
Changes in purity or absorption of moisture ([4]; 3 month accelerated condition (40° C./75% RH)): no significant changes

SMILES: Cl.NCc1cc(Oc2cccc(C(=O)N3C[C@@H](O)[C@H](F)C3)c2)nc(C(F)(F)F)c1 [Form 1 of Compound 1]
Solubility in maturation solvents [5]: insoluble
Behaviour on storage ([1]; 40° C. and 75% RH, after 24 hours): deliquescing
Form change on storage ([1]; 40° C./75% RH for one week): transforms to Form 2
7 days storage @ 40° C./75% RH, appearance ([1]; 40° C./75% RH): Waxy/glassy solid +
7 days storage @ 40° C./75% RH, resulting XRPD form ([1]; 40° C./75% RH): particles - Form 2
Hygroscopicity [2]: hygroscopic solid; also recorded: hygroscopic form
solubility (physchem): ≥ 1000 mg/mL

SMILES: NCc1cc(Oc2cccc(C(=O)N3C[C@@H](O)[C@H](F)C3)c2)nc(C(F)(F)F)c1 [Compound I, (R,R)-trans-(3-((4-(aminomethyl)-6-(trifluoromethyl)pyridin-2-yl)oxy)phenyl)(3-fluoro-4-hydroxypyrrolidin-1-yl)methanone]
solubility at 10 min ([6]; 2-Propanol): > 100 mg/mL
solubility at 10 min ([6]; Acetonitrile): > 100 mg/mL
solubility at 10 min ([6]; Dichloromethane): > 100 mg/mL
solubility at 10 min ([6]; Ethanol): > 100 mg/mL
solubility at 10 min ([6]; Ethyl Acetate): > 100 mg/mL
solubility at 10 min ([6]; Hexane): > 100 mg/mL
solubility at 10 min ([6]; Tetrahydrofuran): > 100 mg/mL
solubility at 10 min ([6]; Toluene, up to 50 vol): > 20 mg/mL
Potency relative to the (S,S)-isomer (LOXL2 [7]): less than 2 fold

SMILES: Cl.NCc1cc(Oc2cccc(C(=O)N3C[C@@H](O)[C@H](F)C3)c2)nc(C(F)(F)F)c1 [Amorphous Compound 1]
solubility [5]: 200 − 100
Behaviour at 40° C./75% RH ([1]; 40° C./75% RH): deliquesces
7 days storage @ 40° C./75% RH, appearance ([1]; 40° C./75% RH): Glassy material

SMILES: Cl.NCc1cc(Oc2cccc(C(=O)N3C[C@@H](O)[C@H](F)C3)c2)nc(C(F)(F)F)c1 [Form 2 of Compound 1]
7 days storage @ 40° C./75% RH, appearance ([1]; 40° C./75% RH): Waxy/glassy solid +
7 days storage @ 40° C./75% RH, resulting XRPD form ([1]; 40° C./75% RH): particles - Form 2
Physical change over time ([1]; over time): converts over time to a waxy solid
Behaviour on storage ([1]; storage conditions (40° C. and 75% RH) for 1 week): remained unchanged
Thermal stability [2]: thermally stable

More lines, main results first:

XRPD change on heating and storage ([1]; heating to 130° C. and upon the storage conditions): changed to Form 1
SMILES: CS(=O)(=O)O.NCc1cc(Oc2cccc(C(=O)N3C[C@@H](O)[C@H](F)C3)c2)nc(C(F)(F)F)c1 [Form 3 of Compound 2]

Form change after GVS and storage ([1]; after GVS analysis and 7 days at 40° C./75% RH): phase transformation towards Form 1
Form conversion in humidity ([1]; in humidity): converts to Form 1
Form change on storage ([2]; 7 days at 25° C./97% RH): change also occurs
SMILES: CS(=O)(=O)O.NCc1cc(Oc2cccc(C(=O)N3C[C@@H](O)[C@H](F)C3)c2)nc(C(F)(F)F)c1 [Form 2 of Compound 2]

solubility ([8]; aqueous medium, pH 2, aqueous buffer, read-out: Aqueous Solubility): > 107 mg/mL
solubility ([8]; aqueous medium, pH 7.4, aqueous buffer, read-out: Aqueous Solubility): > 107 mg/mL
solubility ([8]; aqueous medium, pH 10, aqueous buffer, read-out: Aqueous Solubility): > 85 mg/mL
solubility ([8]; ethanol, organic solvent or mixture, EtOH, read-out: Organic Solubility, Qualitative Solubility): ~15 mg/mL
solubility ([8]; ethanol/water (90:10), isopropanol/water (90:10), organic solvent or mixture, read-out: Organic Solubility, Qualitative Solubility): ~50 mg/mL
solubility ([8]; methanol, tetrahydrofuran/water (90:10), organic solvent or mixture, read-out: Organic Solubility, Qualitative Solubility): ~100 mg/mL
solubility ([8]; organic solvent or mixture, isopropyl acetate, isopropanol, methyl-ethyl ketone, acetone, ethanol, methyl-t-butyl ether, 1,4 dioxane, toluene, tetrahydrofuran, dichloromethane, acetonitrile, read-out: Organic Solubility, Qualitative Solubility): ≤ 10 mg/mL
solubility ([8]; water, dimethyl sulfoxide, read-out: Organic Solubility, Qualitative Solubility): > 200 mg/mL
SMILES: CS(=O)(=O)O.NCc1cc(Oc2cccc(C(=O)N3C[C@@H](O)[C@H](F)C3)c2)nc(C(F)(F)F)c1 [Form 1 of Compound 2]
XRPD after the GVS analysis [9]: X-ray powder diffraction (XRPD): Unchanged
Polymorph stability on storage ([1]; 7 days at 40° C./75% RH and 25° C./97% RH): Form 1, which is stable for 7 days at 40° C./75% RH and 25° C./97%

All attributes tested (appearance, purity, related substances, chiral purity, moisture, DSC, XRPD) ([4]; 1 month data, long-term and accelerated conditions of 1-year and 2-year ICH studies): within limits
Solid state stability, heat (Forced degradation study; solid, 100° C., 24 hours): stable
Solid state stability, light (Forced degradation study; solid, light max 365 nm, 24 hours): stable
Solution state stability, heat (Forced degradation study; solution, 50° C. for 24 hours): stable
Clear Point Temperature ([10]; 5 mg in 1 mL IPA:water 95:5): 6.9 °C
Clear Point Temperature ([10]; 10 mg in 1 mL IPA:water 95:5): 20.3 °C
Clear Point Temperature ([10]; 20 mg in 1 mL IPA:water 95:5): 37.2 °C
Clear Point Temperature ([10]; 30 mg in 1 mL IPA:water 95:5): 48.5 °C
Cloud Point Temperature ([10]; 30 mg in 1 mL IPA:water 95:5): −7.8 °C
Clear Point Temperature ([10]; 40 mg in 1 mL IPA:water 95:5): 55.8 °C
Cloud Point Temperature ([10]; 40 mg in 1 mL IPA:water 95:5): −1.8 °C
Clear Point Temperature ([10]; 60 mg in 1 mL IPA:water 95:5): 64 °C
Cloud Point Temperature ([10]; 60 mg in 1 mL IPA:water 95:5): 14.5 °C
Clear Point Temperature ([10]; 70 mg in 1 mL IPA:water 95:5): 68.6 °C
Cloud Point Temperature ([10]; 70 mg in 1 mL IPA:water 95:5): 24.7 °C
SMILES: NCc1cc(Oc2cccc(C(=O)N3C[C@@H](O)[C@H](F)C3)c2)nc(C(F)(F)F)c1 [Compound 2, (R,R)-trans-(3-((4-(aminomethyl)-6-(trifluoromethyl)pyridin-2-yl)oxy)phenyl)(3-fluoro-4-hydroxypyrrolidin-1-yl)methanone, methanesulfonate salt]
